Data reported in patent publication US20180353486A1, “METHODS AND PHARMACEUTICAL COMPOSITIONS FOR THE TREATMENT OF DARIER DISEASE” (INSERM (Institut National de la Sante et de la Recherche …, priority 2015, published 2018).

Tests used:
[1] = test system: NFATc1 in normal keratinocytes (NKs); assay: NFATc1 expression and nuclear localization (qRT-PCR, western blot) in thapsigargin-treated normal keratinocytes; type: cell-based, human; settings: 1 μM TG
Experimental: (§1) FIG. 4: TG-treated NK display the same features as DK. NKs were pretreated (TG) or not (−) with 1 μM of TG for 24 hours. a-b. […] Reversion by CsA treatment. c-d. TG-treated NK display premature differentiation markers up-regulation. SPRR2, LCE3B-E and loricrin expression is induced after 24 h (TG24) and 48 h (TG48) of TG-treatment in NK. *P<0.05. Results are from NKs from two donors (a) and one donor (b-d) and are representative of two independent experiments from two NKs.
To test whether loss of SERCA2 function is sufficient to induce NFATc1 overexpression and activation associated with premature expression of EDC genes, NKs were treated with 1 μM of thapsigargin (TG), a SERCA pumps inhibitor, for 24 and/or 48 hours to mimick SERCA2 dysfunction in DK.

[2] = test system: LCE3D, LCE3E, SPRR2B, SPRR2D and loricrin in normal keratinocytes (NKs); assay: Expression of EDC differentiation genes (qRT-PCR, western blot) in thapsigargin-treated normal keratinocytes; type: cell-based, human; settings: 1 μM TG, 24 and/or 48 hours
Experimental: as §1
In order to confirm that upregulation of differentiation genes is due to SERCA2 defect, qRT-PCR and western blot analysis were performed on TG-treated NKs.

[3] = test system: LCE3D, LCE3E, SPRR2B, SPRR2D and loricrin in Darier keratinocytes (DKs); assay: Expression of EDC differentiation genes (qRT-PCR, western blot) in Darier keratinocytes after NFATc1 inhibition; type: cell-based, human
Experimental: FIG. 5: Calcineurin inhibitors and NFATc1 inhibition decreased premature differentiation in DK. Quantitative RT-PCR and western blot were performed on mRNA and protein extracts from five DKs after 48 h Tacrolimus (a-b) or 24 h and 48 h CsA treatment (b). For (a), results are expressed as fold repression compared to non-treated DK and are the mean+/−SEM of five DK. Results are representative of two independent experiments. Asterisks represent statistical significance versus the appropriate control in each case. *P<0.05 and***P<0.001 c. Relative efficiency of small interfering RNA (siRNA)-mediated NFATc1 silencing compared to scrambled control by quantitative PCR and western blotting. Decreased expression of differentiation genes after NFATc1 specific inhibition at mRNA (d). For (d), results are expressed as fold repression compared to DKs transfected with scrambled si-RNA and are the mean+/−SEM of four DK from one experiment.
To substantiate the role of NFATc1 as an enhancer of EDC genes expression in DKs and TG-treated NKs grown in basal condition, we inhibited NFATc1 activation indirectly (using calcineurin inhibitors) and directly (using small interfering RNA-mediated NFATc1 silencing), in Darier keratinocytes.
DKs maintained in proliferating conditions were treated with 100 ng ml^−1 of Tacrolimus for 24 hours.

Darier disease = settings: few isolated cases, when retinoids were not recommended; systemic Cyclosporin, topical Tacrolimus; cited from earlier work
[4] = test system: NFATc1 nuclear localization in Darier keratinocytes (DKs); assay: NFATc1 nuclear/cytoplasmic localization by western blot in Darier keratinocytes; type: cell-based, human; settings: 100 ng/ml Tacrolimus, 24 hours
Experimental: Nuclear (N) and cytoplasmic (C) cell extracts were immunoblotted for NFATc1 and actin for normalization.
Therefore, we treated healthy keratinocytes and DKs with 10 μM of CsA or 100 ng/ml of Tacrolimus for 24 hours. Western blot experiments using a specific antibody directed against NFATc1 were performed on nuclear and cytosolic extracts.

SMILES | NFATc1 expression (quantitative RT-PCR) ([1]; 24 hours) | NFATc1 protein in nuclear extracts (western blot) ([1]; vs non-treated NKs) | Expression of LCE3D, LCE3E, SPRR2B, SPRR2D and loricrin transcripts and proteins (qRT-PCR, western blot) [2] | Expression of LCE3D, LCE3E, SPRR2B, SPRR2D and loricrin (quantitative RT-PCR) ([3]; DKs in proliferating conditions, 100 ng ml^−1 Tacrolimus, 24 hours) | LCE3B-E, SPRR2 and loricrin protein expression (western blot) ([3]; DKs, Tacrolimus treatment) | Treatment of Darier disease in patients (Darier disease) | NFATc1 localization in nuclear and cytosolic extracts (western blot) [4]
C/C=C(/C)C(=O)O[C@H]1C(C)=C2[C@H]([C@@H]1OC(=O)CCCCCCC)[C@@](C)(OC(C)=O)C[C@H](OC(=O)CCC)[C@@]1(O)[C@H]2OC(=O)[C@@]1(C)O [TG, thapsigargin] | increased NFATc1 expression | a higher amount of NFATc1 protein was located in the nucleus | increased expression |  |  |  | 
C=CC[C@@H]1/C=C(\C)C[C@H](C)C[C@H](OC)[C@H]2O[C@@](O)(C(=O)C(=O)N3CCCC[C@H]3C(=O)O[C@H](/C(C)=C/[C@@H]3CC[C@@H](O)[C@H](OC)C3)[C@H](C)[C@@H](O)CC1=O)[C@H](C)C[C@@H]2OC [Tacrolimus] |  |  |  | significantly decreased | reduced LCE3B-E, SPRR2 and loricrin expression | successfully used | induced NFATc1 translocation from the nucleus to the cytoplasm
